# Measured values reported in PMC3755750 (Cancer chemotherapy and pharmacology, 2013).
# Like-named read-outs stand apart in the source and are kept apart here.
# Tests used:
# [1] = assay type: in vivo, mice (BALB/c, CB17 SCID, tumor-bearing CB17 SCID); conditions: for Tmax: BALB/c, mouse, po; for Dose proportionality of Cmax in plasma and tissues: across mouse strains, sorafenib: all tissues except the tumor; for ka, absorption rate constant: fitted to Study#1 data, then fixed
# [2] = cited from earlier work; for Fa, fraction absorbed / Bioavailability / Fraction of dose absorbed: mice; for Fa, fraction absorbed: fixed in the PBPK model; for Bioavailability: oral
# [3] = ref Pubchem Compound; cited from earlier work
# [4] = cited from earlier work
# [5] = iv dosing; cited from earlier work
# [6] = concomitant CYP3A4 inhibitor ketoconazole; cited from earlier work
# CYP3A4 = conditions: human liver microsomes; cited from earlier work
# CYP2C19 = conditions: human liver microsomes; cited from earlier work
# CYP2D6 = conditions: human liver microsomes; cited from earlier work
# P-glycoprotein (P-gp) = conditions: in vitro; cited from earlier work
# [7] = CB17-SCID, plasma and most tissues
smiles,measurement,setting,value
"CO[C@H]1C[C@@H]2CC[C@@H](C)[C@@](O)(O2)C(=O)C(=O)N2CCCC[C@H]2C(=O)O[C@H]([C@H](C)C[C@@H]2CC[C@@H](OCCO)[C@H](OC)C2)CC(=O)[C@H](C)/C=C(\C)[C@@H](O)[C@@H](OC)C(=O)[C@H](C)C[C@H](C)/C=C/C=C/C=C/1C [everolimus, Everolimus]",Tmax,[1]; [7],1 h
same,Tmax,"[1]; adipose and skin, 5 mg/kg",≤ 6 h
same,"Kbr, partition coefficient brain","[1]; PBPK population mean, mice",0.018
same,"Kmu, partition coefficient muscle","[1]; PBPK population mean, mice",0.105
same,"Ksp, partition coefficient spleen","[1]; PBPK population mean, mice",0.361
same,Dose proportionality of Cmax in plasma and tissues,[1],dose-proportional
same,"ka, absorption rate constant",[1],9.45 h⁻¹
same,Time detected in plasma and all tissues after the last dose,[1]; oral dosing,up to 24 h
same,"Ktu, partition coefficient tumor",[1]; patient-derived primary pancreatic adenocarcinoma explants in SCID mice,0.480
same,PK (AUC) given alone versus in combination,"[1]; student's t test of AUCs from each study, mice",no statistically significant difference
same,"Fa, fraction absorbed",[2],0.12
same,Bioavailability,[2],5%
same,Fraction of dose absorbed,[2],12%
same,log P,[3],5.9
same,Increase of everolimus AUC,"[4]; concomitant strong CYP inhibitor ketoconazole, humans",15 fold
same,Increase of everolimus AUC,"[4]; moderate CYP inhibitors erythromycin, verapamil, cyclosporine",2.7–4.5 fold
same,Change in everolimus AUC,[4]; weak inhibitor atorvastatin,no change
"CNC(=O)c1cc(Oc2ccc(NC(=O)Nc3ccc(Cl)c(C(F)(F)F)c3)cc2)ccn1 [sorafenib, Sorafenib]",Tmax,"[1]; CB17-SCID, GI tract",1 h
same,Tmax,[1]; [7],6 h
same,"Kf, partition coefficient adipose","[1]; PBPK population mean, mice",0.624
same,"Kmu, partition coefficient muscle","[1]; PBPK population mean, mice",0.356
same,"Ksk, partition coefficient skin","[1]; PBPK population mean, mice",0.361
same,"Clint, hepatic clearance","[1]; PBPK population mean, oral dosing, mice",6.64 mL/h
same,Dose proportionality of Cmax in plasma and tissues,[1],dose-proportional
same,"ka, absorption rate constant",[1],3.83 h⁻¹
same,Time detected in plasma and all tissues after the last dose,[1]; oral dosing,up to 24 h
same,Increase in tumor exposure,[1]; twofold increase in sorafenib dose,tenfold
same,Dose proportionality in Cmax and AUC,"[2]; CD-1 mice, at the doses tested",dose proportionality
same,Terminal half-life,[2]; CD-1 mice,3.2 to 4.2 h
same,Tmax,[2]; CD-1 mice,1 to 1.6 h
same,"Fa, fraction absorbed",[2],0.920
same,Bioavailability,[2],80%
same,Fraction of dose absorbed,[2],92%
same,"Partition coefficient K for brain, calculated",[5],0.02
same,"Change in Cmax and exposure, adverse events",[6],lack of clinically relevant adverse events or change in Cmax and exposure
same,CYP3A4 inhibition,CYP3A4,moderate inhibitor
same,CYP2C19 inhibition,CYP2C19,moderate inhibitor
same,CYP2D6 inhibition,CYP2D6,moderate inhibitor
same,P-gp substrate character,P-glycoprotein (P-gp),weak P-glycoprotein (P-gp) substrate
